Laboratory results from patent publication US20230295119A1, “SUBSTITUTED PYRIDINES FOR THE TREATMENT OF INFLAMMATORY DISEASES” (GOSSAMER BIO SERVICES, INC., priority 2020, published 2023).

Tests used:
TYK2 JH2 domain = TYK2 JH2 domain (Homo sapiens (Human), UniProt P29597); test: TYK2 JH2 NanoBRET assay; format: binding; settings: Table 20, read-out: TYK2 IC50
Description: HEK293T cells were transfected with NanoLuc-TYK2 JH2 Fusion Vector (Promega, customized) using Trans-IT reagent (Mirus, #MIR2700) and incubated for overnight in 37° C. incubator. […] Add 85 µL of cell suspension into white, polypropylene, 96-well plates (Corning, #3600). 90 µL of cells were used for no tracer control samples. 5 µL of diluted NanoBRET K10 tracer (Promega, #CS1810C122) were added to cells to a final concentration of 0.5 µM. Test compounds were diluted into DMSO, and then phenol-free opti-MEM to 10X of final concentration. 10 µL of diluted compounds were added into each well. The cells were incubated with test compound and tracer for 2 hours. 3XNanoBRET® Nano-Glo® Substrate and Extracellular NanoLuc® Inhibitor mixture were prepared and 50 µL of the mixture were added into the wells and mixed. […] NanoBRET signal was determined by using the ratio of acceptor signal and donor signal.

human JAK2 = human JAK2 (Homo sapiens (Human), UniProt O60674); test: JAK2 TR-FRET kinase assay; format: biochemical; settings: JAK2 0.025 nM
human JAK3 = human JAK3 (Homo sapiens (Human), UniProt P52333); test: JAK3 TR-FRET kinase assay; format: biochemical; settings: JAK3 0.0125 nM
human JAK1 = human JAK1 (Homo sapiens (Human), UniProt P23458); test: JAK1 TR-FRET kinase assay; format: biochemical; settings: TR-FRET, JAK1 2.5 nM
Chain of human JAK1 (P23458 whole entry): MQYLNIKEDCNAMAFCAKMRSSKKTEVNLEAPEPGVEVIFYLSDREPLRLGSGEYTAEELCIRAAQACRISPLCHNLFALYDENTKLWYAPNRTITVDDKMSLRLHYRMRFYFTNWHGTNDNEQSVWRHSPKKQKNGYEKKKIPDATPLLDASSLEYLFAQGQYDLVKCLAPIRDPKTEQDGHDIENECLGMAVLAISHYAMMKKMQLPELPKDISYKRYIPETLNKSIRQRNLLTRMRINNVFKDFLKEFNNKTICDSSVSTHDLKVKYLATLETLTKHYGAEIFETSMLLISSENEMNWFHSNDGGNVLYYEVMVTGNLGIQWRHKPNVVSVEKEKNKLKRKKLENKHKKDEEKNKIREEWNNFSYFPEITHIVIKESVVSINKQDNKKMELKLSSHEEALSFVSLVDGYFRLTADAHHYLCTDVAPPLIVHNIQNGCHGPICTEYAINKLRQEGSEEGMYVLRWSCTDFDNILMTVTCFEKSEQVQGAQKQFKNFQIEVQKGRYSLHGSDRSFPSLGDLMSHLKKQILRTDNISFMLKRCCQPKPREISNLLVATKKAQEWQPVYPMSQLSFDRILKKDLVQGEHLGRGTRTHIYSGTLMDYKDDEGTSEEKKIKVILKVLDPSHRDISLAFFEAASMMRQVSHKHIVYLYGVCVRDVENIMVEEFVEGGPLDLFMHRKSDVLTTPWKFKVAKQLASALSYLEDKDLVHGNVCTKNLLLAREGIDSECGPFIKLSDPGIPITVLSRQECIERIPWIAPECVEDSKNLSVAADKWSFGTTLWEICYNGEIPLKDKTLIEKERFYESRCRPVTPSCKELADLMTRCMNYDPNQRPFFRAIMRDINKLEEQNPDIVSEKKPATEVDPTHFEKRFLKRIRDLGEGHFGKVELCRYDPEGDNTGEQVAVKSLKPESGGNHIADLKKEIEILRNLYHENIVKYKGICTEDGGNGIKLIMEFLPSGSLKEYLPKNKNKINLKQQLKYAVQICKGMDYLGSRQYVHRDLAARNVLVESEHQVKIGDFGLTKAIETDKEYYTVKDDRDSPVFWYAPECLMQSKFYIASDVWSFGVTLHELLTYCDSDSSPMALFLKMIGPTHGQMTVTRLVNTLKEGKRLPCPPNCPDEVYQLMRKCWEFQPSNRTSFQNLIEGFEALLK

Chain of human JAK2 (O60674 whole entry): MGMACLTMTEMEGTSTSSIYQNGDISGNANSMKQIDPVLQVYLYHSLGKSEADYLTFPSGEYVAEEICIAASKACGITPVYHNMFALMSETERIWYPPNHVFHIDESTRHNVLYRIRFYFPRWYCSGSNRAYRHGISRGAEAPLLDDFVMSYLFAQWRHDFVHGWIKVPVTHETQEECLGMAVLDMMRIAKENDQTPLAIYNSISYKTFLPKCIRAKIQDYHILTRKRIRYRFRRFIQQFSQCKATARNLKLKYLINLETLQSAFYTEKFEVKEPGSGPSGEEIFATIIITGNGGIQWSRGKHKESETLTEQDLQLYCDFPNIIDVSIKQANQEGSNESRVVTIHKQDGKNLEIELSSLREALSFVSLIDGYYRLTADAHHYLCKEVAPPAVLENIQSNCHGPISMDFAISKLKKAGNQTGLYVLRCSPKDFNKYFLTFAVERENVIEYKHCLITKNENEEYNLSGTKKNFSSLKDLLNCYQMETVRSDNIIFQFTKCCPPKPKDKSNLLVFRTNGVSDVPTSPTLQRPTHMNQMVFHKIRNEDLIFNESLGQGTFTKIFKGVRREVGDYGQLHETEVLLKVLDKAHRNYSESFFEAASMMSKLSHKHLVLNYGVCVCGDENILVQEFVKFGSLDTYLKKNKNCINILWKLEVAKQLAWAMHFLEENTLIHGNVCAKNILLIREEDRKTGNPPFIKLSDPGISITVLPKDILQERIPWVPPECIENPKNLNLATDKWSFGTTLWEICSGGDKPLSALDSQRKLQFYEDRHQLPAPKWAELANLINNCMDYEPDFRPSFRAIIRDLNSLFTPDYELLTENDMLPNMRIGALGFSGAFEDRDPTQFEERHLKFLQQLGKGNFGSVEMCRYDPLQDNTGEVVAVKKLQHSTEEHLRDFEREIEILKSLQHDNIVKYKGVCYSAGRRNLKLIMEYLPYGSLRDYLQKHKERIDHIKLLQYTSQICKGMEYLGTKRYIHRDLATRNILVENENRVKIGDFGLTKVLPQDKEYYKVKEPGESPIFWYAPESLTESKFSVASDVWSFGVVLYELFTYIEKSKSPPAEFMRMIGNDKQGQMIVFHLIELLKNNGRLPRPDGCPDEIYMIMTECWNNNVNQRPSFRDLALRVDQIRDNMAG
Chain of human JAK3 (P52333 whole entry): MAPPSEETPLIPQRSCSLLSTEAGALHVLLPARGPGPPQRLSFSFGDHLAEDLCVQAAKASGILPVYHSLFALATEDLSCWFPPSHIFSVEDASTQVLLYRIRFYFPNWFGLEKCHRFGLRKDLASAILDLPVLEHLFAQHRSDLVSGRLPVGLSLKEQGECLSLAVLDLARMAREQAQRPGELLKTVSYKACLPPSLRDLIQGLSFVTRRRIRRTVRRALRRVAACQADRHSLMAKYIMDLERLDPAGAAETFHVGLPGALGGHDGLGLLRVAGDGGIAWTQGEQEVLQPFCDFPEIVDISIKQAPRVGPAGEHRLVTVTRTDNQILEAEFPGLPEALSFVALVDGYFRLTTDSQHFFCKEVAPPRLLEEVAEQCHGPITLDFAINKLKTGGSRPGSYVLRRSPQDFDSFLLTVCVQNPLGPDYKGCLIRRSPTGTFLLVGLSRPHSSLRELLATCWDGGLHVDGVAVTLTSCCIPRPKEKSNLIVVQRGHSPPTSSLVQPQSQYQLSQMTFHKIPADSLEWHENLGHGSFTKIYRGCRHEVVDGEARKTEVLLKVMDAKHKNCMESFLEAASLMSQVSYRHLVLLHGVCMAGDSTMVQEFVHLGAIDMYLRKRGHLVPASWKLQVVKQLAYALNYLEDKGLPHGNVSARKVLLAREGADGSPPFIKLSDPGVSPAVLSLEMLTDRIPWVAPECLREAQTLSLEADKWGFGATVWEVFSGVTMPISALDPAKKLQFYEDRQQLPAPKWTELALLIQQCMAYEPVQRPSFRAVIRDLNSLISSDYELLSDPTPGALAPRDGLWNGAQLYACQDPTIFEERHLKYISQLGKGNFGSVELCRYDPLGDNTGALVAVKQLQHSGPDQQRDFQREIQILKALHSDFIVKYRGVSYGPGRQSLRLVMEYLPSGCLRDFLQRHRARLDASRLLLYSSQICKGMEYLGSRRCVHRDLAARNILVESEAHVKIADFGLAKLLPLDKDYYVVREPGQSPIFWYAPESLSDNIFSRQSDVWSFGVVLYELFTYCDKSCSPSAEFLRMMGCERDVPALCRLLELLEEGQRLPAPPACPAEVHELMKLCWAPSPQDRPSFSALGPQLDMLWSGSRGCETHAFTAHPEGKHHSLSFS
Chain of TYK2 JH2 domain (P29597 589-875): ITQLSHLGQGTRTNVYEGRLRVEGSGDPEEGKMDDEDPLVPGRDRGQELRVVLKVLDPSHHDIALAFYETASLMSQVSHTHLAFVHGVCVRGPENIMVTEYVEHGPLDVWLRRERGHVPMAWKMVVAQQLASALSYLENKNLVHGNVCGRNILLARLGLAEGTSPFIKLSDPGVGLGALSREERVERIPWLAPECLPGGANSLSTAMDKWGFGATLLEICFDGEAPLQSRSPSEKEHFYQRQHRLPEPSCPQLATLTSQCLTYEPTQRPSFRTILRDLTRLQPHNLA

Structure (SMILES) | IC50 (TYK2 JH2 domain) | IC50 (human JAK2) | IC50 (human JAK3) | IC50 (human JAK1)
CCC(=O)c1cnc(Nc2cc(C(=O)N(C)C)ccn2)cc1Nc1cccc(-c2ncn(C)n2)c1OC [Compound 8H] | < 5 nM | ≥ 500 nM | ≥ 500 nM | ≥ 500 nM
CCC(=O)c1cnc(Nc2cccc(C(=O)O)n2)cc1Nc1cccc(-c2ncn(C)n2)c1OC [Compound 8I] | ≥ 500 nM | ≥ 500 nM | ≥ 500 nM | ≥ 500 nM
CCC(=O)c1cnc(Nc2cccc(C(N)=O)n2)cc1Nc1cccc(-c2ncn(C)n2)c1OC [Compound 8J] | < 5 nM | ≥ 500 nM | ≥ 500 nM | ≥ 500 nM
CCC(=O)c1cnc(Nc2cccc(C(=O)NC)n2)cc1Nc1cccc(-c2ncn(C)n2)c1OC [Compound 8K] | < 5 nM | ≥ 500 nM | ≥ 500 nM | ≥ 500 nM
CCC(=O)c1cnc(Nc2cccc(C(=O)N(C)C)n2)cc1Nc1cccc(-c2ncn(C)n2)c1OC [Compound 8L] | 5 to 50 nM | ≥ 500 nM | ≥ 500 nM | ≥ 500 nM
CCC(=O)c1cnc(Nc2cc(C(N)=O)ncn2)cc1Nc1cccc(-c2ncn(C)n2)c1OC [Compound 8M] | < 5 nM | ≥ 500 nM | ≥ 500 nM | ≥ 500 nM
CCC(=O)c1cnc(Nc2cc(C(=O)NC)ncn2)cc1Nc1cccc(-c2ncn(C)n2)c1OC [Compound 8N] | < 5 nM | ≥ 500 nM | ≥ 500 nM | ≥ 500 nM
CCC(=O)c1cnc(Nc2cc(C(=O)N(C)C)ncn2)cc1Nc1cccc(-c2ncn(C)n2)c1OC [Compound 8O] | < 5 nM | ≥ 500 nM | ≥ 500 nM | ≥ 500 nM
CCC(=O)c1cnc(Nc2ccc(CN(C)C)cn2)cc1Nc1cccc(-c2ncn(C)n2)c1OC [Compound 9A, 1-(6-((5-((dimethylamino)methyl)pyridin-2-yl)amino)-4-((2-methoxy-3-(1-methyl-1H-1,2,4-triazol-3-yl)phenyl)amino)pyridin-3-yl)propan-1-one] | < 5 nM | ≥ 500 nM | ≥ 500 nM | ≥ 500 nM
CCC(=O)c1cnc(Nc2cnc(CN3CCCC3)cn2)cc1Nc1cccc(-c2ncn(C)n2)c1OC [Compound 9AAAA] | < 5 nM | ≥ 500 nM | ≥ 500 nM | ≥ 500 nM
CCC(=O)c1cnc(Nc2ccc([C@H](C)N3CC4(COC4)C3)cn2)cc1Nc1cccc(-c2ncn(C)n2)c1OC [Compound 9AAA] | < 5 nM | ≥ 500 nM | ≥ 500 nM | ≥ 500 nM
CCC(=O)c1cnc(Nc2ccc(C(C)NCC(F)F)cn2)cc1Nc1cccc(-c2ncn(C)n2)c1OC (stereo not drawn) [Compound 9AA] | < 5 nM | 50 to 500 nM | 50 to 500 nM | ≥ 500 nM
CCC(=O)c1cnc(Nc2cnc(CN3CCN(C)CC3)cn2)cc1Nc1cccc(-c2ncn(C)n2)c1OC [Compound 9BBBB] | < 5 nM | ≥ 500 nM | ≥ 500 nM | ≥ 500 nM
CCC(=O)c1cnc(Nc2ccc([C@@H](C)N3CC4(COC4)C3)cn2)cc1Nc1cccc(-c2ncn(C)n2)c1OC [Compound 9BBB] | < 5 nM | 50 to 500 nM | 50 to 500 nM | ≥ 500 nM
CCC(=O)c1cnc(Nc2ccc(CN(C)CC#N)cn2)cc1Nc1cccc(-c2ncn(C)n2)c1OC [Compound 9BB] | 5 to 50 nM | ≥ 500 nM | ≥ 500 nM | ≥ 500 nM
CCC(=O)c1cnc(Nc2ccc(CN)cn2)cc1Nc1cccc(-c2ncn(C)n2)c1OC [Compound 9B] | < 5 nM | ≥ 500 nM | ≥ 500 nM | ≥ 500 nM
CCC(=O)c1cnc(Nc2ncc(CN3CCCC3)cc2F)cc1Nc1cccc(-c2ncn(C)n2)c1OC [Compound 9CCCC] | 5 to 50 nM | ≥ 500 nM | ≥ 500 nM | ≥ 500 nM

Structure (SMILES) | IC50 (TYK2 JH2 domain) | IC50 (human JAK2) | IC50 (human JAK3) | IC50 (human JAK1)
CCC(=O)c1cnc(Nc2ccc(CN3CC4(CCOC4)C3)cn2)cc1Nc1cccc(-c2ncn(C)n2)c1OC [Compound 9CCC] | < 5 nM | ≥ 500 nM | ≥ 500 nM | ≥ 500 nM
CCC(=O)c1cnc(Nc2ccc(C(N)C(F)(F)F)cn2)cc1Nc1cccc(-c2ncn(C)n2)c1OC (stereo not drawn) [Compound 9CC] | < 5 nM | ≥ 500 nM | ≥ 500 nM | ≥ 500 nM
CCC(=O)c1cnc(Nc2ccc(CNC)cn2)cc1Nc1cccc(-c2ncn(C)n2)c1OC [Compound 9C] | < 5 nM | ≥ 500 nM | ≥ 500 nM | ≥ 500 nM
CCC(=O)c1cnc(Nc2ncc(CN(C)C)cc2F)cc1Nc1cccc(-c2ncn(C)n2)c1OC [Compound 9DDDD] | 5 to 50 nM | ≥ 500 nM | ≥ 500 nM | ≥ 500 nM
CCC(=O)c1cnc(Nc2ccc(CN(C)C3COC3)cn2)cc1Nc1cccc(-c2ncn(C)n2)c1OC [Compound 9DDD] | < 5 nM | ≥ 500 nM | ≥ 500 nM | ≥ 500 nM
CCC(=O)c1cnc(Nc2ccc(CN3CC(OC)C3)cn2)cc1Nc1cccc(-c2ncn(C)n2)c1OC [Compound 9DD] | < 5 nM | ≥ 500 nM | ≥ 500 nM | ≥ 500 nM
CCC(=O)c1cnc(Nc2ccc(CN(C)C)cn2)cc1Nc1cccc(-c2ncc(F)cn2)c1OC [Compound 9D] | 5 to 50 nM | ≥ 500 nM | ≥ 500 nM | ≥ 500 nM
CCC(=O)c1cnc(Nc2ncc(CNC)cc2F)cc1Nc1cccc(-c2ncn(C)n2)c1OC [Compound 9EEEE] | 5 to 50 nM | ≥ 500 nM | ≥ 500 nM | ≥ 500 nM
CCC(=O)c1cnc(Nc2ccc(CN(C)C3CC(F)(F)C3)cn2)cc1Nc1cccc(-c2ncn(C)n2)c1OC [Compound 9EEE] | < 5 nM | ≥ 500 nM | ≥ 500 nM | ≥ 500 nM
CCC(=O)c1cnc(Nc2ccc(CN3CC(F)C3)cn2)cc1Nc1cccc(-c2ncn(C)n2)c1OC [Compound 9EE] | < 5 nM | ≥ 500 nM | 50 to 500 nM | ≥ 500 nM
CCC(=O)c1cnc(Nc2ccc(CN(C)C)cn2)cc1Nc1cc(F)cc(-c2ncn(C)n2)c1OC [Compound 9E] | < 5 nM | ≥ 500 nM | ≥ 500 nM | ≥ 500 nM
CCC(=O)c1cnc(Nc2cccc(CN3CCCC3)n2)cc1Nc1cccc(-c2ncn(C)n2)c1OC [Compound 9FFFF] | 5 to 50 nM | ≥ 500 nM | ≥ 500 nM | ≥ 500 nM
CCC(=O)c1cnc(Nc2ccc(CN)nn2)cc1Nc1cccc(-c2ncn(C)n2)c1OC [Compound 9FFF] | 50 to 500 nM | ≥ 500 nM | ≥ 500 nM | ≥ 500 nM
CCC(=O)c1cnc(Nc2ccc(CN3CC(C#N)C3)cn2)cc1Nc1cccc(-c2ncn(C)n2)c1OC [Compound 9FF] | 5 to 50 nM | ≥ 500 nM | 50 to 500 nM | ≥ 500 nM
COc1c(Nc2cc(Nc3ccc(CN(C)C)cn3)ncc2C(=O)C2CC2)cccc1-c1ncn(C)n1 [Compound 9F] | 5 to 50 nM | ≥ 500 nM | ≥ 500 nM | ≥ 500 nM
CCC(=O)c1cnc(Nc2cccc(CN3CCCCC3)n2)cc1Nc1cccc(-c2ncn(C)n2)c1OC [Compound 9GGGG] | 5 to 50 nM | ≥ 500 nM | ≥ 500 nM | ≥ 500 nM
